Experimental data as given in US20240092758A1, “IMIDAZOLO INDAZOLE COMPOUNDS AS JAK INHIBITORS” (Theravance Biopharma R&D IP, LLC, priority 2021, published 2024).

Experiments:
JAK1 = JAK1 (Homo sapiens (Human), UniProt P23458); assay: Biochemical JAK kinase assay (LanthaScreen), JAK1; conditions: for Ki: read-out: JAK1 pKi (converted)
Protocol: (§1) A panel of four LanthaScreen JAK biochemical assays (JAK1, 2, 3 and Tyk2) were carried in a common kinase reaction buffer (50 mM HEPES, pH 7.5, 0.01% Brij-35, 10 mM MgCl2, and 1 mM EGTA). Recombinant GST-tagged JAK enzymes and a GFP-tagged STAT1 peptide substrate were obtained from Life Technologies.
(§2) Serially diluted compounds were pre-incubated with each of the four JAK enzymes and the substrate in white 384-well microplates (Corning) at ambient temperature for 1 h. ATP was subsequently added to initiate the kinase reactions in 10 μL total volume, with 1% DMSO. The final enzyme concentrations for JAK1, 2, 3 and Tyk2 are 4.2 nM, 0.1 nM, 1 nM, and 0.25 nM respectively; the corresponding Km ATP concentrations used are 25 μM, 3 μM, 1.6 μM, and 10 μM; while the substrate concentration is 200 nM for all four assays. Kinase reactions were allowed to proceed for 1 hour at ambient temperature before a 10 μL preparation of EDTA (10 mM final concentration) and Tb-anti-pSTAT1 (pTyr701) antibody (Life Technologies, 2 nM final concentration) in TR-FRET dilution buffer (Life Technologies) was added. The plates were allowed to incubate at ambient temperature for 1 h before being read on the EnVision reader (Perkin Elmer). Emission ratio signals (520 nm/495 nm) were recorded and utilized to calculate the percent inhibition values based on DMSO and background controls.
(§3) For dose-response analysis, percent inhibition data were plotted vs. compound concentrations, and IC50 values were determined from a 4-parameter robust fit model with the Prism software (GraphPad Software). Results were expressed as pIC50 (negative logarithm of IC50) and subsequently converted to pKi (negative logarithm of dissociation constant, Ki) using the Cheng-Prusoff equation.
(§4) Test compounds having a lower Ki value or higher pKi value in the four JAK assays show greater inhibition of JAK activity.

[1] = tested on: IL-13 induced STAT6 phosphorylation in BEAS-2B human lung epithelial cells; assay: Cellular JAKI potency assay (BEAS-2B); assay type: cell-based; conditions: Homo sapiens, BEAS-2B, BEAS-2B cells, read-out: BEAS2B pIC50 (converted)
Protocol: The JAKI cellular potency assay was carried out by measuring inhibition of interleukin-13 (IL-13, R&D Systems) induced STAT6 phosphorylation in BEAS-2B human lung epithelial cells (ATCC). BEAS-2B cells were grown at 37° C. in a 5% CO2 humidified incubator in 50% DMEM/50% F-12 medium (Life Technologies) supplemented with 10% FBS (Hyclone), 100 U/mL penicillin, 100 μg/mL streptomycin (Life Technologies), and 2 mM GlutaMAX (Life Technologies). On day 1 of the assay, cells were seeded at a 7,500 cells/well density in white poly-D-lysine-coated 384-well plates (Corning) with 25 μL medium and were allowed to adhere overnight in the incubator. On day 2 of the assay, the medium was removed and replaced with 12 μL of assay buffer (Hank's Balanced Salt Solution/HBSS, 25 mM HEPES, and 1 mg/ml bovine serum albumin/BSA) containing dose-responses of test compounds. Compounds were serially diluted in DMSO and then diluted another 1000-fold in media to bring the final DMSO concentration to 0.1%. Cells were incubated with test compounds at 37° C. for 1 h and followed by the addition of 12 μl of pre-warmed IL-13 (80 ng/mL in assay buffer) for stimulation. After incubating at 37° C. for 30 min, the assay buffer (containing compound and IL-13) was removed, and 10 μL of cell lysis buffer (25 mM HEPES, 0.1% SDS, 1% NP-40, 5 mM MgCl2, 1.3 mM EDTA, 1 mM EGTA, supplemented with Complete Ultra mini protease inhibitors and PhosSTOP from Roche Diagnostics). The plates were shaken at ambient temperature for 30 min before the addition of detection reagents. Levels of pSTAT6 were measured using the AlphaLISA SureFire Ultra pSTAT6 (Tyr641) assay kit from PerkinElmer. For dose-response analysis, percent inhibition data were plotted vs. compound concentrations, and IC50 values were determined from a 4-parameter robust fit model with the Graphpad Prism software. Results are expressed as the negative logarithm of the IC50 value, pIC50.
Test compounds having a lower IC50 value or higher pIC50 value in this assay show greater inhibition of IL-13 induced STAT6 phosphorylation.

JAK2 = JAK2 (Homo sapiens (Human), UniProt O60674); assay: Biochemical JAK kinase assay (LanthaScreen), JAK2; conditions: for Ki: read-out: JAK2 pKi (converted)
Protocol: as §1, §2, §3, §4

Chain of JAK1 (P23458 whole entry): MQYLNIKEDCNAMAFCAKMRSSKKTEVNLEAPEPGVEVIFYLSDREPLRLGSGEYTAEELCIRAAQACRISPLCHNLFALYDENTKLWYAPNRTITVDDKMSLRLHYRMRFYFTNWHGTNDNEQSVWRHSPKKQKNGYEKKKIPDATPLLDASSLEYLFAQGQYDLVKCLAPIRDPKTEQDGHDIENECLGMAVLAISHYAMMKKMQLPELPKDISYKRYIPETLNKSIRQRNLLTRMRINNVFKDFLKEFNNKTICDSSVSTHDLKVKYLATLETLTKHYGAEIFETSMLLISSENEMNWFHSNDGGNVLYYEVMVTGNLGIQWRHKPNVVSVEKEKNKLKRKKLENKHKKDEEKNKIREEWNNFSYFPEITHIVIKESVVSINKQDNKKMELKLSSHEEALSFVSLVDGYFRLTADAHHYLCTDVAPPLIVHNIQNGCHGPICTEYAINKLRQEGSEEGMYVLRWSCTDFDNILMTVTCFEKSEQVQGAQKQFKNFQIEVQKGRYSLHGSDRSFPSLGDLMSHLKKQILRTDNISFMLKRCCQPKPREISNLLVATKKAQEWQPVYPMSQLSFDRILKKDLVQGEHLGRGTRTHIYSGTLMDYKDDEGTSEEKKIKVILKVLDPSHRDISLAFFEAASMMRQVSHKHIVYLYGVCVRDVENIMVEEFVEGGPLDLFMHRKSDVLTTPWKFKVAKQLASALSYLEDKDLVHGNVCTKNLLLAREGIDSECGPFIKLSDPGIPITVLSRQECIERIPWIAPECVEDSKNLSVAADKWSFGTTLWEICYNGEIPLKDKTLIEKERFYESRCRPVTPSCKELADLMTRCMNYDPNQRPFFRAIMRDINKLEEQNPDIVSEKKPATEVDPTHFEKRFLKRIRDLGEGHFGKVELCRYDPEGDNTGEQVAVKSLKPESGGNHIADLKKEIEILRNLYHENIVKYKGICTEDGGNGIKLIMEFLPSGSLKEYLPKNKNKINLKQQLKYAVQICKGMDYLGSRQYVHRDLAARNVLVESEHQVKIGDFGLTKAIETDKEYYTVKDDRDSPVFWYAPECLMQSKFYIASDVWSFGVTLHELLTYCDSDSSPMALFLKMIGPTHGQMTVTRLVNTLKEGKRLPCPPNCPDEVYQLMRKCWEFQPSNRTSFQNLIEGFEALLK
Chain of JAK2 (O60674 whole entry): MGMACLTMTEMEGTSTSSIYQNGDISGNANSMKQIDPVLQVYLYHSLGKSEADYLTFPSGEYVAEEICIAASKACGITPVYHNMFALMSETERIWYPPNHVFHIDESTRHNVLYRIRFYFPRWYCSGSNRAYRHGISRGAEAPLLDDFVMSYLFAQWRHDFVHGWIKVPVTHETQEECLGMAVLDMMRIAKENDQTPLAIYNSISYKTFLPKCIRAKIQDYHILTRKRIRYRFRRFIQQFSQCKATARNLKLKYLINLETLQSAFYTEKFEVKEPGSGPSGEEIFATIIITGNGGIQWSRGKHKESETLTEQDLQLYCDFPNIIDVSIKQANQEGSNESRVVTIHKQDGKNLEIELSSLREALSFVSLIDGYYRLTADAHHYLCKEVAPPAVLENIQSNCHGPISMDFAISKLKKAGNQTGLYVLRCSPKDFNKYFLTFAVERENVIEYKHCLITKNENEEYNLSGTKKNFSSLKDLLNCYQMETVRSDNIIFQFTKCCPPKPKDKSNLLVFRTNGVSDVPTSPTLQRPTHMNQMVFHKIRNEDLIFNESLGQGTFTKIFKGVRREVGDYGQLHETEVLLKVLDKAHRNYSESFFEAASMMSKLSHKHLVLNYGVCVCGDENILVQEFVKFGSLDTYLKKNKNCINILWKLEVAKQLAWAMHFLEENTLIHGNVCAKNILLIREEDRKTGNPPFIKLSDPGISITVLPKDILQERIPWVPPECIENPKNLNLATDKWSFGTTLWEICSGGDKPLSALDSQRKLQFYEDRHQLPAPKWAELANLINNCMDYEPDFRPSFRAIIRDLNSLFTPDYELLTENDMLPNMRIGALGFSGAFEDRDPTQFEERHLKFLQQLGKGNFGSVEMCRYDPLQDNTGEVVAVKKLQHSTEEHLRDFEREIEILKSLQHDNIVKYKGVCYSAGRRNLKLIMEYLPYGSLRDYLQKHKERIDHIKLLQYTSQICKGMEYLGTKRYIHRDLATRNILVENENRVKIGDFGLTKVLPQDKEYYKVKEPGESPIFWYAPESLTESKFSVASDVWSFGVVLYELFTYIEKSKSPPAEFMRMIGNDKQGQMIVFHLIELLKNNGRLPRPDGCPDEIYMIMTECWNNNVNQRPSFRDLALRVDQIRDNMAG

| SMILES | Ki (JAK1) [nM] | IC50 [1] [nM] | Ki (JAK2) [nM] | JAK2 pKi (JAK2) | JAK1 pKi (JAK1) |
| --- | --- | --- | --- | --- | --- |
| CCc1cc(O)ccc1-c1ccc2c(-c3nc(C4=C[C@@H](C)N[C@@H](C)C4)c[nH]3)n[nH]c2c1 (racemic) [Example 366] | 0.1 to 1 | 31.6 to 100 | 0.1 to 1 |  |  |
| CCc1cc(O)ccc1-c1ccc2c(-c3nc(C4=CCCN(C5CC(O)C5)C4)c[nH]3)n[nH]c2c1F (stereo not drawn) [Compound 10, 3-ethyl-4-(7-fluoro-3-(4-(1-(3-hydroxycyclobutyl)-1,2,5,6-tetrahydropyridin-3-yl)-1H-imidazol-2-yl)-1H-indazol-6-yl)phenol] | 0.1 to 1 | 10 to 31.6 | 0.1 to 1 |  |  |
| CCc1cc(O)ccc1-c1ccc2c(-c3nc(C4=CCN(Cc5cn[nH]c5)CC4)c[nH]3)n[nH]c2c1F [Compound 11, 4-(3-(4-(1-((1H-pyrazol-4-yl)methyl)-1,2,3,6-tetrahydropyridin-4-yl)-1H-imidazol-2-yl)-7-fluoro-1H-indazol-6-yl)-3-ethylphenol] | 0.1 to 1 | 10 to 31.6 |  | A (A represents a pKi value ≥10 (Ki≤0.1 nM)) |  |
| CCc1cc(O)ccc1-c1ccc2c(-c3nc(C4=CCN(CC(=O)NC)CC4)c[nH]3)n[nH]c2c1F [Compound 12, 2-(4-(2-(6-(2-ethyl-4-hydroxyphenyl)-7-fluoro-1H-indazol-3-yl)-1H-imidazol-4-yl)-3,6-dihydropyridin-1(2H)-yl)-N-methylacetamide] | 0.1 to 1 | 10 to 31.6 | 0.1 to 1 |  |  |
| CCc1cc(O)ccc1-c1ccc2c(-c3nc(C4=CCCN(C(C)C)C4)c[nH]3)n[nH]c2c1 [Example 28] | 0.1 to 1 | 3.16 to 10 | 0.1 to 1 |  |  |
| CCc1cc(O)ccc1-c1ccc2c(-c3nc(C4=CCN(CCC(C)(C)O)CC4)c[nH]3)n[nH]c2c1 [Example 35] |  | 3.16 to 10 |  | A (A represents a pKi value ≥10 (Ki≤0.1 nM)) | A (A represents a pKi value ≥10 (Ki≤0.1 nM)) |
| CCc1cc(O)ccc1-c1ccc2c(-c3nc(C4=CCN(CCC(C)(C)O)CC4)c[nH]3)n[nH]c2c1F [Example 37] | 0.1 to 1 | 10 to 31.6 | 0.1 to 1 |  |  |
| CCc1cc(O)ccc1-c1ccc2c(-c3nc(C4=CCN(C[C@@H](C)CO)CC4)c[nH]3)n[nH]c2c1F [Example 39] | 0.1 to 1 | 10 to 31.6 | 0.1 to 1 |  |  |
| CCc1cc(O)ccc1-c1ccc2c(-c3nc(C4=CCN(C5CC(O)C5)CC4)c[nH]3)n[nH]c2c1F (stereo not drawn) [Example 40] |  | 10 to 31.6 |  | A (A represents a pKi value ≥10 (Ki≤0.1 nM)) | A (A represents a pKi value ≥10 (Ki≤0.1 nM)) |
| CCc1cc(O)ccc1-c1ccc2c(-c3nc(C4=CCCN(CCO)C4)c[nH]3)n[nH]c2c1 [Example 41] | 0.1 to 1 | 3.16 to 10 |  | A (A represents a pKi value ≥10 (Ki≤0.1 nM)) |  |
| CCc1cc(O)ccc1-c1ccc2c(-c3nc(C4=CCCN(C5CC(O)C5)C4)c[nH]3)n[nH]c2c1 (stereo not drawn) [Example 43] | 0.1 to 1 | 3.16 to 10 |  | A (A represents a pKi value ≥10 (Ki≤0.1 nM)) |  |
| CCc1cc(O)ccc1-c1ccc2c(-c3nc(C4=CCCN(C(C)CO)C4)c[nH]3)n[nH]c2c1F (stereo not drawn) [Example 46] | 0.1 to 1 | 10 to 31.6 | 0.1 to 1 |  |  |
| CCc1cc(O)ccc1-c1ccc2c(-c3nc(C4=CCCN(C[C@H](C)CO)C4)c[nH]3)n[nH]c2c1F [Example 48] | 0.1 to 1 | 10 to 31.6 | 0.1 to 1 |  |  |
| CCc1cc(O)ccc1-c1ccc2c(-c3nc(C4=CCCN(C[C@@H](C)CO)C4)c[nH]3)n[nH]c2c1F [Example 49] | 0.1 to 1 | 10 to 31.6 | 0.1 to 1 |  |  |
| CCc1cc(O)ccc1-c1ccc2c(-c3nc(C4=CCN(C5CC(O)C5)C4)c[nH]3)n[nH]c2c1 (stereo not drawn) [Example 52] |  | 3.16 to 10 |  | A (A represents a pKi value ≥10 (Ki≤0.1 nM)) | A (A represents a pKi value ≥10 (Ki≤0.1 nM)) |
| CCc1cc(O)ccc1-c1ccc2c(-c3nc(C4=CCN(CCC(C)(C)O)C4)c[nH]3)n[nH]c2c1F [Example 55] |  | 3.16 to 10 |  | A (A represents a pKi value ≥10 (Ki≤0.1 nM)) | A (A represents a pKi value ≥10 (Ki≤0.1 nM)) |
| CCc1cc(O)ccc1-c1ccc2c(-c3nc(C4=CCN(CCCOC)CC4)c[nH]3)n[nH]c2c1 [Example 56] |  | 3.16 to 10 |  | A (A represents a pKi value ≥10 (Ki≤0.1 nM)) | A (A represents a pKi value ≥10 (Ki≤0.1 nM)) |
| CCc1cc(O)ccc1-c1ccc2c(-c3nc(C4=CCN(C(C)C5CC(O)C5)CC4)c[nH]3)n[nH]c2c1F (stereo not drawn) [Example 58] |  | 3.16 to 10 |  | A (A represents a pKi value ≥10 (Ki≤0.1 nM)) | A (A represents a pKi value ≥10 (Ki≤0.1 nM)) |
| CCc1cc(O)ccc1-c1ccc2c(-c3nc(C4=CCN(CCCOC)CC4)c[nH]3)n[nH]c2c1F [Example 59] | 0.1 to 1 | 10 to 31.6 | 0.1 to 1 |  |  |
| CCc1cc(O)ccc1-c1ccc2c(-c3nc(C4=CCN(CC5COC5)CC4)c[nH]3)n[nH]c2c1F [Example 60] | 0.1 to 1 | 10 to 31.6 |  | A (A represents a pKi value ≥10 (Ki≤0.1 nM)) |  |
| CCc1cc(O)ccc1-c1ccc2c(-c3nc(C4=CCN(C5CCOCC5)CC4)c[nH]3)n[nH]c2c1F [Example 61] | 0.1 to 1 | 10 to 31.6 |  | A (A represents a pKi value ≥10 (Ki≤0.1 nM)) |  |
| CCc1cc(O)ccc1-c1ccc2c(-c3nc(C4=CCN(CC5CCCO5)CC4)c[nH]3)n[nH]c2c1F (stereo not drawn) [Example 62] | 0.1 to 1 | 10 to 31.6 |  | A (A represents a pKi value ≥10 (Ki≤0.1 nM)) |  |
| CCc1cc(O)ccc1-c1ccc2c(-c3nc(C4=CCN(CC5CCCOC5)CC4)c[nH]3)n[nH]c2c1F (stereo not drawn) [Example 63] | 0.1 to 1 | 10 to 31.6 | 0.1 to 1 |  |  |
| CCc1cc(O)ccc1-c1ccc2c(-c3nc(C4=CCCN(CCCOC)C4)c[nH]3)n[nH]c2c1 [Example 65] | 0.1 to 1 | 3.16 to 10 | 0.1 to 1 |  |  |
| CCc1cc(O)ccc1-c1ccc2c(-c3nc(C4=CCCN(C(C)C5CC(O)C5)C4)c[nH]3)n[nH]c2c1F (stereo not drawn) [Example 66] | 0.1 to 1 | 10 to 31.6 |  | A (A represents a pKi value ≥10 (Ki≤0.1 nM)) |  |
| CCc1cc(O)ccc1-c1ccc2c(-c3nc(C4=CCCN(CCCOC)C4)c[nH]3)n[nH]c2c1F [Example 67] | 0.1 to 1 | 10 to 31.6 | 0.1 to 1 |  |  |
| CCc1cc(O)ccc1-c1ccc2c(-c3nc(C4=CCCN(CC5COC5)C4)c[nH]3)n[nH]c2c1F [Example 68] | 0.1 to 1 | 10 to 31.6 | 0.1 to 1 |  |  |
| CCc1cc(O)ccc1-c1ccc2c(-c3nc(C4=CCCN(C(=O)[C@@H](N)C(C)(C)O)C4)c[nH]3)n[nH]c2c1 [Example 165] | 0.1 to 1 | 10 to 31.6 |  |  |  |
| CCc1cc(O)ccc1-c1ccc2c(-c3nc(C4=C[C@H](CO)N(CCS(C)(=O)=O)C4)c[nH]3)n[nH]c2c1F [Example 279] | 0.1 to 1 | 31.6 to 100 |  |  |  |
| CCc1cc(O)ccc1-c1ccc2c(-c3nc(C4=C[C@H](CO)N(CCS(=O)(=O)NC)C4)c[nH]3)n[nH]c2c1F [Example 280] |  | 100 to 316 |  | A (A represents a pKi value ≥10 (Ki≤0.1 nM)) |  |
